The text below walks through data of patent publication US20060276464A1, “Diarylsulfone sulfonamides and use thereof” (Wyeth, priority 2005, published 2006).

Experiment [1] concerns the target T1, SFRP-1 (Homo sapiens, UniProt Q8N474).
T1 sequence (Q8N474 32-314): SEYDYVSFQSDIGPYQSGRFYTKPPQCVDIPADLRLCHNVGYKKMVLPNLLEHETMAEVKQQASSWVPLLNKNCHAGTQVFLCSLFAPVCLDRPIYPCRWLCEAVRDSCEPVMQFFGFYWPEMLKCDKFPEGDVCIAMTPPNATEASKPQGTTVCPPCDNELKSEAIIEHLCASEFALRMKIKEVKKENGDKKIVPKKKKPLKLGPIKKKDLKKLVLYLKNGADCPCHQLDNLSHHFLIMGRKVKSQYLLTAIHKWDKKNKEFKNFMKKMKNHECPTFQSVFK
Briefly: Fluorescence polarization binding assay (competitive displacement of a probe compound from SFRP-1).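 Note: test compound competes with a fluorescent probe held by SFRP-1, seen as a drop in probe anisotropy after incubation in darkness, with anisotropy as function of rising compound dose.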 The note with it: fluorescence anisotropy, 45 nM SFRP-1, 20 nM probe. (Polarisation of emitted light reports the rotation of a fluorescent probe.)

Experiment [2] addresses T1, SFRP-1. Nature of the experiment: Cell-based assay for in vitro measurement of SFRP-1/SARP2 antagonist activity (U2OS cells co-transfected with 16x TCF-tk-Luciferase reporter, Wnt and hSFRP-1).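 For all read-outs here: U2OS cells co-transfected with a TCF-tk luciferase reporter, a Wnt vector, hSFRP-1 or empty vector and CMV-βgal, luciferase luminescence read in cell lysates alongside βgal activity.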 The note with it: for fold induction at 10 µM: U2OS, read-out: Fold Induction with SFRP-1, U2OS cells, single dose 10 μM, luciferase reporter, fold induction over SFRP-1 control. Background: In a reporter assay the amount or activity of a reporter protein is the signal.

Structures are written as SMILES.

Molecule `Cc1cc(C(=O)N2CCC(NS(=O)(=O)c3cc(S(=O)(=O)c4ccccc4)ccc3C(F)(F)F)CC2)cc(Cl)n1` [Example 856, N-[1-(2-chloro-6-methylisonicotinoyl)piperidin-4-yl]-5-(phenylsulfonyl)-2-(trifluoromethyl)benzenesulfonamide] displayed an IC50 at SFRP-1 [1] of 100 nM. Besides, at SFRP-1 [2], the EC50 turned out to be 360 nM and the fold induction at 10 µM was 4.2.
On SFRP-1 [1], `O=C(c1cc(Cl)nc(Cl)c1)N1CCC(NS(=O)(=O)c2cc(S(=O)(=O)c3ccccc3)ccc2C(F)(F)F)CC1` [Example 857, N-[1-(2,6-dichloroisonicotinoyl)piperidin-4-yl]-5-(phenylsulfonyl)-2-(trifluoromethyl)benzenesulfonamide] gave an IC50 of 150 nM. On SFRP-1 [2], the half-maximal effective concentration (EC50) stood at 1190 nM and the fold induction at 10 µM stood at 4.4.
Take `CC(C)c1ccc(S(=O)(=O)c2ccc(F)cc2)cc1S(=O)(=O)NC1CCS(=O)(=O)CC1` [Example 858, N-(1,1-dioxidotetrahydro-2H-thiopyran-4-yl)-5-[(4-fluorophenyl)sulfonyl]-2-isopropylbenzenesulfonamide]: the IC50 on SFRP-1 [1] came out at 1400 nM. In addition, the fold induction at 10 µM on SFRP-1 [2] was 3.8.
In turn, `CNc1ccccc1S(=O)(=O)c1ccc(C(F)(F)F)c(S(=O)(=O)NC2CCNCC2)c1` [Example 861, 5-{[2-(methylamino)phenyl]sulfonyl}-N-piperidin-4-yl-2-(trifluoromethyl)benzenesulfonamide] returned an IC50 on SFRP-1 [1] of 600 nM. Besides, at SFRP-1 [2], the EC50 stood at 1780 nM and the fold induction at 10 µM turned out to be 4.
In the case of `CN(C)c1ccccc1S(=O)(=O)c1ccc(C(F)(F)F)c(S(=O)(=O)NC2CCNCC2)c1` [Example 862, 5-{[2-(dimethylamino)phenyl]sulfonyl}-N-piperidin-4-yl-2-(trifluoromethyl)benzenesulfonamide], the IC50 at SFRP-1 [1] is 1300 nM. Also, the fold induction at 10 µM on SFRP-1 [2] was 4.
The like results for `O=S(=O)(NCCc1nn[nH]n1)c1cc(S(=O)(=O)c2ccccc2)ccc1C(F)(F)F` [Example 863, 5-(phenylsulfonyl)-N-[2-(2H-tetrazol-5-yl)ethyl]-2-(trifluoromethyl)benzenesulfonamide] were, in that order, 1800 nM and 2.4.
For `CCC(CC)C(=O)N(C)CCNS(=O)(=O)c1cc(S(=O)(=O)c2ccccc2)ccc1C(F)(F)F` [Example 864, 2-ethyl-N-methyl-N-[2-({[5-(phenylsulfonyl)-2-(trifluoromethyl)phenyl]sulfonyl}amino)ethyl]butanamide], at SFRP-1 [1], the IC50 is 300 nM. Moreover, on SFRP-1 [2], the EC50 was 1800 nM and the fold induction at 10 µM turned out to be 3.2.
As for `CCCCOC(=O)N(C)CCNS(=O)(=O)c1cc(S(=O)(=O)c2ccccc2)ccc1C(F)(F)F` [Example 865, butyl methyl[2-({[5-(phenylsulfonyl)-2-(trifluoromethyl)phenyl]sulfonyl}amino)ethyl]carbamate], the IC50 at SFRP-1 [1] was determined as 300 nM. In addition, at SFRP-1 [2], a half-maximal response (EC50) required 2140 nM and the fold induction at 10 µM was determined as 2.9.
Take `CN(CCNS(=O)(=O)c1cc(S(=O)(=O)c2ccccc2)ccc1C(F)(F)F)C(=O)NC1CCN(C(=O)OC(C)(C)C)CC1` [Example 866]: the IC50 on SFRP-1 [1] turned out to be 800 nM. Also, the fold induction at 10 µM at SFRP-1 [2] was determined as 4.6.
At SFRP-1 [1], `CN(CCNS(=O)(=O)c1cc(S(=O)(=O)c2ccccc2)ccc1C(F)(F)F)C(=O)OCC(C)(C)C` [Example 867, 2,2-dimethylpropyl methyl[2-({[5-(phenylsulfonyl)-2-(trifluoromethyl)phenyl]sulfonyl}amino)ethyl]carbamate] registered an IC50 of 800 nM. Besides, the fold induction at 10 µM on SFRP-1 [2] was 2.8.
On SFRP-1 [1], `O=S(=O)(NCC1(O)CCCCC1)c1cc(S(=O)(=O)c2ccccc2)ccc1C(F)(F)F` [Example 868, N-[(1-hydroxycyclohexyl)methyl]-5-(phenylsulfonyl)-2-(trifluoromethyl)benzenesulfonamide] yielded an IC50 of 2500 nM. For the same molecule, at SFRP-1 [2], the EC50 was 2130 nM and the fold induction at 10 µM came out at 2.4.

For orientation: IC50 means the point on the concentration scale where inhibition reaches its midpoint. Lower therefore signals greater potency in that assay. What is called EC50 is the concentration giving half of the maximal effect. Low values mean an effect from little substance, high ones a need for much substance.
